In BindingDB's records for doi:10.1021/ml1002508 (2011) one finds EC50 data, which are given here for 1 compound.

The assay can be described thus: Agonist activity at androgen receptor expressed in mouse C2C12 cells assessed as osteoblast differentiation after 5 days.

SMILES strings stand for the structures. pEC50: −log10 of the molar value.

In general, pEC50 refers to the EC50 on a negative log10 scale, so that one unit is a factor of ten.

Consider `Cc1c(N[C@@H](c2nnc(-c3ccc(C#N)cc3)o2)[C@H](C)O)ccc(C#N)c1Cl` [2-chloro-4-((1R,2S)-1-(5-(4-cyanophenyl)-1,3,4-oxadiazol-2-yl)-2-hydroxypropylamino)-3-methylbenzonitrile], for which the negative-log EC50 (pEC50) is 10.00.
